From PubChem BioAssay (NCI)
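Step 1: Grow cells in 96-well plates. Step 2: Expose to compound for 48 hours at 5 concentrations. Step 3: Interpolate endpoints linearly; if unreached, use highest concentration. TGI: total growth inhibition.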

Tests used:
Assay in all cases: growth of human tumour cells (NCI), 48 h
[1] = tested on: OVCAR-5 ovarian
[2] = tested on: CCRF-CEM leukemia
[3] = tested on: HCC-2998 colon
[4] = tested on: IGROV1 ovarian
[5] = tested on: MALME-3M melanoma
[6] = tested on: DMS 273 small cell lung
[7] = tested on: M19-MEL melanoma
[8] = tested on: NCI-H460 lung
[9] = tested on: KM12 colon
[10] = tested on: RXF 393 renal
[11] = tested on: NCI-H522 lung
[12] = tested on: M14 melanoma
[13] = tested on: ACHN renal
[14] = tested on: NCI-H226 lung
[15] = tested on: SN12C renal
[16] = tested on: DLD-1 colon
[17] = tested on: SNB-75 CNS
[18] = tested on: OVCAR-8 ovarian
[19] = tested on: SK-OV-3 ovarian
[20] = tested on: SNB-19 CNS
[21] = tested on: OVCAR-3 ovarian
[22] = tested on: CAKI-1 renal
[23] = tested on: 786-0 renal
[24] = tested on: HCT-116 colon
[25] = tested on: UACC-257 melanoma
[26] = tested on: UACC-62 melanoma
[27] = tested on: XF 498 CNS
[28] = tested on: NCI-H23 lung
[29] = tested on: HOP-62 NSCLC
[30] = tested on: MOLT-4 leukemia
[31] = tested on: HL-60(TB) leukemia
[32] = tested on: SK-MEL-2 melanoma
[33] = tested on: LXFL 529 NSCLC
[34] = tested on: K-562 leukemia
[35] = tested on: COLO 205 colon
[36] = tested on: HOP-18 NSCLC
[37] = tested on: DMS 114 small cell lung
[38] = tested on: HOP-92 NSCLC
[39] = tested on: LOX IMVI melanoma
[40] = tested on: SW-620 colon
[41] = tested on: SF-295 CNS
[42] = tested on: A549 NSCLC
[43] = tested on: KM20L2 colon
[44] = tested on: SNB-78 CNS
[45] = tested on: EKVX NSCLC
[46] = tested on: RPMI-8226 leukemia
[47] = tested on: TK-10 renal
[48] = tested on: SK-MEL-5 melanoma
[49] = tested on: SK-MEL-28 melanoma
[50] = tested on: HCT-15 colon
[51] = tested on: U251 CNS
[52] = tested on: UO-31 renal
[53] = tested on: HT29 colon
[54] = tested on: SR leukemia
[55] = tested on: A498 renal
[56] = tested on: SF-268 CNS

CC1=NN(c2ccccc2)C(=O)C1=C1SCCCS1
TGI [1]: > 100 µM | TGI [2]: 39 µM | TGI [3]: > 100 µM | TGI [4]: > 100 µM | TGI [5]: > 100 µM | TGI [6]: > 100 µM | TGI [7]: > 100 µM | TGI [8]: > 100 µM | TGI [9]: 66 µM | TGI [10]: 60.7 µM | TGI [11]: 37.5 µM | TGI [12]: > 100 µM | TGI [13]: > 100 µM | TGI [14]: > 100 µM | TGI [15]: 83.2 µM | TGI [16]: 45.9 µM | TGI [17]: > 100 µM | TGI [18]: > 100 µM | TGI [19]: > 100 µM | TGI [20]: 84.7 µM | TGI [21]: 70.7 µM | TGI [22]: 52.1 µM | TGI [23]: > 100 µM | TGI [24]: 31.7 µM | TGI [25]: 94.1 µM | TGI [26]: 39.7 µM | TGI [27]: 58.6 µM | TGI [28]: > 100 µM | TGI [29]: > 100 µM | TGI [30]: 36.1 µM | TGI [31]: 41.9 µM | TGI [32]: > 100 µM | TGI [33]: > 100 µM | TGI [34]: 47.6 µM | TGI [35]: 29.3 µM | TGI [36]: > 100 µM | TGI [37]: 45.2 µM | TGI [38]: 64 µM | TGI [39]: 55.8 µM | TGI [40]: 26.6 µM | TGI [41]: 73.7 µM | TGI [42]: > 100 µM | TGI [43]: > 100 µM | TGI [44]: > 100 µM | TGI [45]: 88.4 µM | TGI [46]: 46.1 µM | TGI [47]: > 100 µM | TGI [48]: > 100 µM | TGI [49]: > 100 µM | TGI [50]: > 100 µM | TGI [51]: 37.4 µM | TGI [52]: > 100 µM | TGI [53]: > 100 µM | TGI [54]: 34.5 µM | TGI [55]: 90.7 µM | TGI [56]: > 100 µM
